Where two headings read alike, the source gives them in different places.
Target: T1, Human TRPC6 (Homo sapiens, UniProt Q9Y210)
T1 construct: expressed in transfected cells
T1 sequence (Q9Y210 1-931): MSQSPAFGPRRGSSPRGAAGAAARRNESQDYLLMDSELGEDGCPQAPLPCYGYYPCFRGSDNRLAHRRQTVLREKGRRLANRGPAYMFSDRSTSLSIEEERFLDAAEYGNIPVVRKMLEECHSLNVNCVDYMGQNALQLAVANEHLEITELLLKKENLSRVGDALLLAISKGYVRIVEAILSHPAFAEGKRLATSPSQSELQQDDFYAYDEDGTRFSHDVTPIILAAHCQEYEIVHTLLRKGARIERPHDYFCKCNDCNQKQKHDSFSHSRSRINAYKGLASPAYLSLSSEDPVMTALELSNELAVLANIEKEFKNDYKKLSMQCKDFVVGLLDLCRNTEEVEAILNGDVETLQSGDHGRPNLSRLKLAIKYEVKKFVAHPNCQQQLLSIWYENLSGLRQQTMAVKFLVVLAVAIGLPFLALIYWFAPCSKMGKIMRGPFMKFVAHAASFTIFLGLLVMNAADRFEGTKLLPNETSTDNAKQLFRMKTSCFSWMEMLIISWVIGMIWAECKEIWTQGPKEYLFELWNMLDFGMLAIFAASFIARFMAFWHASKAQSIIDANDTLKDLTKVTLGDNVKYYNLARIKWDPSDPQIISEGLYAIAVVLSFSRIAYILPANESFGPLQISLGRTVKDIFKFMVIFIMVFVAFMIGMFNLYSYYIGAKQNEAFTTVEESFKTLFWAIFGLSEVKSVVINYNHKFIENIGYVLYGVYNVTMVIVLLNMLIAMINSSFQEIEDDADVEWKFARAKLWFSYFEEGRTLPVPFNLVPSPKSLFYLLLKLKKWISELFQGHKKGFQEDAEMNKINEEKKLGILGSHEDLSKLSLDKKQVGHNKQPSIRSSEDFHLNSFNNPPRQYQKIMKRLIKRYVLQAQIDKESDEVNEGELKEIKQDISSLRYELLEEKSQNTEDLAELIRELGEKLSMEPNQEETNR
Assay: Evaluation of TRPC6 channel inhibitory activity (1), FLIPR Calcium 5 Assay Kit, OAG stimulation (Compound Nos. 1-1293)
Assay type: cell-based
Summary of the method: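 Calcium influx read by FLIPR fluorescence in cells stably expressing human TRPC6, dye-loaded 30 min. Compounds preincubated 20 min, then OAG stimulation at 30 μM final. Inhibition fitted by four-parameter logistic regression to give pIC50, reported as +/++/+++ categories.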

[1] = Human TRPC6 stably-expressing cells, OAG 30 μM, FLIPR Calcium 5 Assay Kit, read-out: Inhibitory activity (pIC50 class) (converted)

Row | SMILES | IC50 [1] [nM] | IC50 [nM]
1 | Cc1cc(Oc2cc(C#N)ccc2-c2ccc(CCN)cn2)cc(N2CCN(C)C(=O)C2)n1 [compound 464, 4-[5-(2-aminoethyl)pyridin-2-yl]-3-[2-methyl-6-(4-methyl-3-oxopiperazin-1-yl)pyridin-4-yl]oxybenzonitrile] | > 1000 | –
2 | Cc1nc(Oc2cc(C#N)ccc2-c2ccc(C(CN)c3ccsc3)cc2)cc(N2CCOCC2)n1 (stereo not drawn) [Compound 72, 4-[4-(2-amino-1-thiophen-3-ylethyl)phenyl]-3-(2-methyl-6-morpholin-4-ylpyrimidin-4-yl)oxybenzonitrile] | 10 to 1000 | –
3 | Cc1nc(Oc2cc(C#N)ccc2-c2ccc(CCN)cn2)cc(N2CCOCC2)n1 [Compound 85, 4-[5-(2-aminoethyl)pyridin-2-yl]-3-(2-methyl-6-morpholin-4-ylpyrimidin-4-yl)oxybenzonitrile] | 10 to 1000 | –
4 | Cn1nc(-c2cccc(F)c2)cc1Oc1cc(C#N)ccc1-c1ccc(CCN)cc1 [Compound 186, 4-[4-(2-aminoethyl)phenyl]-3-[5-(3-fluorophenyl)-2-methylpyrazol-3-yl]oxybenzonitrile] | < 10 | –
5 | Cc1nc(Oc2cc(C#N)ccc2-c2ccc(C3CN(CCC(=O)O)C3)cc2)cc(N2CCOCC2)n1 [Compound 55, 3-[3-[4-[4-cyano-2-(2-methyl-6-morpholin-4-ylpyrimidin-4-yl)oxyphenyl]phenyl]azetidin-1-yl]propanoic acid] | > 1000 | –
6 | Cc1nc(Oc2cc(C#N)ccc2-c2ncc([C@H](O)CN)cn2)cc(N2CCCC2)n1 [compound 508, 4-[5-[(1S)-2-amino-1-hydroxyethyl]pyrimidin-2-yl]-3-(2-methyl-6-pyrrolidin-1-ylpyrimidin-4-yl)oxybenzonitrile] | < 10 | –
7 | Cc1cc(Oc2cc(C#N)ccc2-c2ccc(CCN)nc2)cc(N2CCOCC2)n1 [Compound 172, 4-[6-(2-aminoethyl)pyridin-3-yl]-3-(2-methyl-6-morpholin-4-ylpyridin-4-yl)oxybenzonitrile] | < 10 | –
8 | Cc1cc(Oc2cc(C#N)ccc2-c2ccc(C(N)C#N)cn2)cc(N2CCOCC2)n1 (stereo not drawn) [compound 423, 4-[5-[amino(cyano)methyl]pyridin-2-yl]-3-(2-methyl-6-morpholin-4-ylpyridin-4-yl)oxybenzonitrile] | 10 to 1000 | –
9 | Cc1cc(Oc2cc(C#N)ccc2-c2ccc(C(C)N)cn2)cc(N2CCOCC2)n1 (stereo not drawn) [compound 398, 4-[5-(1-aminoethyl)pyridin-2-yl]-3-(2-methyl-6-morpholin-4-ylpyridin-4-yl)oxybenzonitrile] | < 10 | –
10 | Cc1nc(Oc2cc(C#N)ccc2-c2ncc(CN)cn2)cc(N2C3CCC2CC3)n1 [compound 672, 4-[5-(aminomethyl)pyrimidin-2-yl]-3-[6-(7-azabicyclo[2.2.1]heptan-7-yl)-2-methylpyrimidin-4-yl]oxybenzonitrile] | – | < 10
11 | N#Cc1ccc(-c2ccc(CCN)cc2)c(Oc2cnnc(-c3ccccc3C#N)c2)c1 [Compound 93, 4-[4-(2-aminoethyl)phenyl]-3-[6-(2-cyanophenyl)pyridazin-4-yl]oxybenzonitrile] | < 10 | –
12 | Cc1nc(Oc2cc(C#N)ccc2-c2nc(C)c(CN(C)C)s2)cc(-c2ccccc2)n1 [Compound 143, 4-[5-[(dimethylamino)methyl]-4-methyl-1,3-thiazol-2-yl]-3-(2-methyl-6-phenylpyrimidin-4-yl)oxybenzonitrile] | > 1000 | –
13 | Cn1nc(C2CC2)cc1Oc1cc(C#N)ccc1-c1ccc2ccnc(N)c2c1 [compound 452, 4-(1-aminoisoquinolin-7-yl)-3-(5-cyclopropyl-2-methylpyrazol-3-yl)oxybenzonitrile] | > 1000 | –
14 | N#Cc1ccc(-c2ccc(CCN)cc2)c(Oc2cnnc(OC3CCCC3)c2)c1 [Compound 107, 4-[4-(2-aminoethyl)phenyl]-3-(6-cyclopentyloxypyridazin-4-yl)oxybenzonitrile] | 10 to 1000 | –

The next lines start with results.

Row | IC50 [1] [nM] | SMILES | IC50 [nM]
15 | 10 to 1000 | Cc1nc(C(F)F)cn1Cc1cc(C#N)ccc1-c1ncc(CCN)cn1 [compound 1176, 4-[5-(2-aminoethyl)pyrimidin-2-yl]-3-[[4-(difluoromethyl)-2-methylimidazol-1-yl]methyl]benzonitrile] | –
16 | < 10 | Cc1nn(C(C)C)cc1C(=O)c1cc(C#N)ccc1-c1ncc(CN)cn1 [compound 1054, 4-[5-(aminomethyl)pyrimidin-2-yl]-3-(3-methyl-1-propan-2-ylpyrazole-4-carbonyl)benzonitrile] | –
17 | < 10 | Cc1cc(Oc2cc(C#N)ccc2-c2ccc([C@H](O)CN)cn2)cc(-c2ccccn2)n1 [compound 691, 4-[5-[(1S)-2-amino-1-hydroxyethyl]pyridin-2-yl]-3-(2-methyl-6-pyridin-2-ylpyridin-4-yl)oxybenzonitrile] | –
18 | 10 to 1000 | Cn1ccc(-c2cc(Oc3cc(C#N)ccc3-c3ncc(CN)cn3)n(C)n2)n1 [compound 946, 4-[5-(aminomethyl)pyrimidin-2-yl]-3-[2-methyl-5-(1-methylpyrazol-3-yl)pyrazol-3-yl]oxybenzonitrile] | –
19 | < 10 | Cc1nc(-c2ccccc2)cn1Cc1cc(C#N)ccc1-c1ccc(CCN)cn1 [compound 1150, 4-[5-(2-aminoethyl)pyridin-2-yl]-3-[(2-methyl-4-phenylimidazol-1-yl)methyl]benzonitrile] | –
20 | 10 to 1000 | Cc1cc(Oc2cc(C#N)ccc2-c2ccn(CCN)c(=O)c2)cc(N2CCOCC2)n1 [compound 566, 4-[1-(2-aminoethyl)-2-oxopyridin-4-yl]-3-(2-methyl-6-morpholin-4-ylpyridin-4-yl)oxybenzonitrile] | –
21 | 10 to 1000 | N#Cc1ccc(-c2ncc(CCN)cn2)c(Oc2nnc(N3CCCC3)s2)c1 [compound 726, 4-[5-(2-aminoethyl)pyrimidin-2-yl]-3-[(5-pyrrolidin-1-yl-1,3,4-thiadiazol-2-yl)oxy]benzonitrile] | –
22 | < 10 | Cc1nc(Oc2cc(C#N)ccc2-c2ncc(CN)cn2)cc(N2C=NCCC2)n1 [compound 850, 4-[5-(aminomethyl)pyrimidin-2-yl]-3-[6-(5,6-dihydro-4H-pyrimidin-1-yl)-2-methylpyrimidin-4-yl]oxybenzonitrile] | –
23 | < 10 | CN(C)c1cc(C(=O)c2cc(C#N)ccc2-c2ncc(CN)cn2)n(C)n1 [compound 1051, 4-[5-(aminomethyl)pyrimidin-2-yl]-3-[5-(dimethylamino)-2-methylpyrazole-3-carbonyl]benzonitrile] | –
24 | < 10 | CN(C)c1cc(Oc2cc(C#N)ccc2-c2ccc(CC3(N)COC3)cn2)n(C)n1 [compound 743, 4-[5-[(3-aminooxetan-3-yl)methyl]pyridin-2-yl]-3-[5-(dimethylamino)-2-methylpyrazol-3-yl]oxybenzonitrile] | –
25 | > 1000 | N#Cc1ccc(-c2ncc(CN)cn2)c(Oc2cncc(N3CCOCC3)c2)c1 [compound 918, 4-[5-(aminomethyl)pyrimidin-2-yl]-3-(5-morpholin-4-ylpyridin-3-yl)oxybenzonitrile] | –
26 | > 1000 | Cc1nc(NC2CCOCC2)cc(Oc2cc(C#N)ccc2-c2ncc(CN)cn2)n1 [compound 635, 4-[5-(aminomethyl)pyrimidin-2-yl]-3-[2-methyl-6-(oxan-4 ylamino)pyrimidin-4-yl]oxybenzonitrile] | –
27 | < 10 | Cn1nc(C(C)(C)C)cc1C(=O)c1cc(C#N)ccc1-c1ncc(CCN)cn1 [compound 1031, 4-[5-(2-aminoethyl)pyrimidin-2-yl]-3-(5-tert-butyl-2-methylpyrazole-3-carbonyl)benzonitrile] | –

— US20230167073A1 (Teijin Pharma Limited, priority 2020, published 2023)
